Where “and” joins values, the source holds several entries; their conditions need not be identical. Equal values may be shown once. Read-outs that look alike come from different tables or passages of the source.
Tests used:
B16 murine melanoma = experiment: Anti-tumour activity against B16 melanoma in C57/black mice, tumour weight inhibition; type: in vivo, female C57/black mice; details: statement in words, refers to Table 8
[1] = Anti-tumour activity in vitro; details: statement in words
[2] = test system: M5076 reticulum cell sarcoma; experiment: Anti-tumour activity against M5076 reticulum cell sarcoma; type: in vivo, murine; details: statement in words
Method: (§1) The purpose of these studies was to evaluate the anti-tumour properties of a group of compounds with structural similarities that may act as arylating agents. Their in vivo anti-tumour responses were assessed against two ascitic tumours, the MAC15A murine colon adenocarcinoma and the P388 murine leukaemia and various solid tumour models.
(§2) The MAC15A ascites tumour cells were transplanted into male NMR1 mice by ip inoculation at a cell density of 1 X 10^5 cells in 200µl buffer (Table 1). The P388 were transplanted ip into male BDF1 mice at cell density of 1 X 10^6 cells in 200µl buffer (Table 2). The solid tumour models included the MAC13 and MAC16 murine colon adenocarcinomas, the B16 F1 murine melanoma and the M5076 reticulum cell sarcoma.
(§3) Treatment commenced 3 days after ip transplant or, in the case of solid tumours such as MAC13 and MAC16, treatment commenced when average tumour volumes reached 40mm^3.
(§4) The animals were sacrificed after 12 days or when tumours ulcerated, tumour volume exceeded 1000mm^3 or loss of body weight exceeded 50%.
(§5) Except where otherwise stated, the compounds used were dissolved in DMSO and diluted in sterile distilled water, at appropriate concentrations before administration in a solvent volume of 200 µl. Anti-tumour responses were obtained by comparing the median survival times or tumour growth inhibition against solvent controls.

[3] = Anti-tumour activity against MAC13, tumour weight inhibition; type: in vivo, murine; details: mouse, in vivo; Table 6; ip, per day; corn oil; read-out: maximum tolerated dose
Method: as §1, §2, §3, §4, §5

[4] = test system: MAC13 murine colon adenocarcinoma; experiment: as above; type: in vivo; details: 12 days after im transplant, corn oil
Method: as §1, §2, §3, §4, §5

in vitro = details: CC50 (Toxicity)
in vivo = details: mouse, ip
HIV-1IIIB = experiment: Acute infection assay against HIV-1IIIB; type: cell-based, human immunodeficiency virus
[5] = test system: MAC16, murine colon adenocarcinoma; experiment: Anti-tumour activity against MAC16, tumour weight inhibition; type: in vivo; details: for % Tumour Weight Inhibition: day 11 after beginning of treatment, sc transplant, corn oil
Method: as §1, §2, §3, §4, §5

[6] = as above; type: in vivo, murine; details: mouse, in vivo; Table 7; ip, per day; corn oil; read-out: maximum tolerated dose
Method: as §1, §2, §3, §4, §5

B16F1-murine melanoma = details: mouse, in vivo
[7] = test system: MAC15A (murine adenocarcinoma colon); experiment: Anti-tumour activity against MAC15A ascites tumour, survival T/C%; type: in vivo, mice; details: ip
P388 (murine leukaemia) = experiment: Anti-tumour activity against P388 ascites tumour, survival T/C%; type: in vivo, mice; details: Table 2, mean, day 1 to 5
Method: as §1, §2, §3
The animals were located in both cases into groups of 5 to 8 animals.
as §4
Except where otherwise stated, the compounds used were dissolved in DMSO and diluted in sterile distilled water, at appropriate concentrations before administration in a solvent volume of 200 µl. […]
T/C% is determined as follows:- […]

HIV-1RF = experiment: Acute Infection Assay, HIV core antigen ELISA in C8166 cells; type: cell-based, human immunodeficiency virus

Compound: O=C(O)c1cc([N+](=O)[O-])ccc1Cl [2-chloro-5-nitrobenzoic acid]
- anti-tumour activity in vivo (B16 murine melanoma): shows consideration anti-tumour activity in vivo
- anti-tumour activity in vitro [1]: could not be supported in vitro

Compound: NC(=O)c1cc([N+](=O)[O-])c(Cl)c([N+](=O)[O-])c1Cl [Compound C2, 2,4-dichloro-3,5-dinitrobenzamide]
- antitumour activity [2]: without antitumour activity
- MTD at 12 days [3]: 2.5 mg/kg
- % Tumour Weight Inhibition ([4]; 1.25 mg/kg ip, days 1,2,3,4,5,6,7,8,9): 17%
- % Tumour Weight Inhibition ([4]; 2.5 mg/kg ip, days 1,2,3,4,5,6,7,8,9): 51%
- CC50 (in vitro): 70 µM
- MTD (in vivo): 2.5 mg/kg
- SI (Selectivity Index) (HIV-1IIIB): 35
- IC50 (HIV-1IIIB; Human immunodeficiency virus 1, IIIB, read-out: IC50 (Antiviral)): 2 µM

Compound: O=C(O)c1cc([N+](=O)[O-])c(Cl)c([N+](=O)[O-])c1Cl [Compound C1, 2,4-dichloro-3,5-dinitrobenzoic acid]
- % Tumour Weight Inhibition ([5]; 50 mg/kg ip, days 1,2,4,5,8): 91%
- % Tumour Weight Inhibition ([5]; 75 mg/kg ip, days 1,2,5,8): 88%
- inhibition of tumour growth ([5]; statement in words, MAC16 murine colon adenocarcinoma): effectively inhibited growth
- MTD at 12 days [6]: 75 mg/kg
- CC50 (uninfected cells): 60 µM
- inhibition of tumour growth (B16F1-murine melanoma): effectively inhibited growth
- MTD at 12 days [3]: 75 mg/kg
- % Tumour Weight Inhibition ([4]; 50 mg/kg ip, days 1,2,3,4,5,6,7,8,9): 39%
- % Tumour Weight Inhibition ([4]; 75 mg/kg ip, days 1,4,5): 45%
- CC50 (in vitro): 56 µM
- response vs control in vivo at 100 mg/kg ([7]; Mus musculus, MAC15A, read-out: T/C%): 243%
- MTD (in vivo): 75 mg/kg

Compound: O=[N+]([O-])c1cc(S(=O)(=O)O)cc([N+](=O)[O-])c1Cl [Compound S1, 4-chloro-3,5-dinitrobenzenesulfonic acid]
- CD50 (uninfected cells): 80 µM
- TC% (P388 (murine leukaemia); 50 mg kg^-1 per day IP): 259%
- TC% (P388 (murine leukaemia); 100mg kg^-1 per day IP): 203%
- CC50 (in vitro): 100 µM
- SI (Selectivity Index) (HIV-1RF): 5 and 3
- TI (HIV-1RF): 28.6
- IC50 (HIV-1RF; read-out: IC50): 3 µM
- IC50 (HIV-1RF; read-out: IC50 (Antiviral)): 20 µM and 19 µM
- T/C% ([7]; mouse, in vivo): 414%
